These results are taken from patent publication US5733563A, “Albumin based hydrogel” (Universite du Quebec a Montreal, priority 1996, dated 1998).

Data set [1] concerns the target asparaginase of E.coli immobilized in hydrogel prepared with albumin and PEG 10,000 (Escherichia coli, UniProt P00805). Briefly: Apparent Km of asparaginase immobilized in albumin-PEG 10,000 hydrogel. It counts as biochemical. The conditions noted are these: slab thickness of 3 mm. The protocol: (§1) As another example of enzyme immobilization in hydrogels prepared with albumin and PEG 10,000 of Mr, the enzyme asparaginase of E.coli was used. […] The operational stability of the immobilized enzyme in presence of a continuous feeding in substrate extend at 37° C. over a 20 days period without significant loss of activity.

Substrate in data set [2]: NC(=O)C[C@H](N)C(=O)O
Put plainly: Km of soluble asparaginase for asparagine. It counts as biochemical, E.coli. The conditions noted are these: other: soluble form of the enzyme; pH 8.0; 37.0 °C. The protocol: as §1

For `NC(=O)C[C@H](N)C(=O)O` [asparagine], in data set [1], the “apparent Km for the substrate asparagine” value was found to be 2.4 µM.

B1: asparaginase of E.coli, soluble form (Escherichia coli K-12) (protein)
chain: LPNITILATGGTIAGGGDSATKSNYTVGKVGVENLVNAVPQLKDIANVKGEQVVNIGSQDMNDNVWLTLAKKINTDCDKTDGFVITHGTDTMEETAYFLDLTVKCDKPVVMVGAMRPSTSMSADGPFNLYNAVVTAADKASANRGVLVVMNDTVLDGRDVTKTNTTDVATFKSVNYGPLGYIHNGKIDYQRTPARKHTSDTPFDVSKLNELPKVGIVYNYANASDLPAKALVDAGYDGIVSAGVGNGNLYKSVFDTLATAAKTGTAVVRSSRVPTGATTQDAEVDDAKYGFVASGTLNPQKARVLLQLALTQTKDPQQIQQIFNQY
In the case of B1, in data set [2], the Km is 2.2 µM.

The term Km denotes the substrate concentration at which the rate is half of its maximum.
